{"source": "ChEMBL document CHEMBL5370550", "about": "“Structure-guided optimization of adenosine mimetics as selective and potent inhibitors of coronavirus nsp14 N7-methyltransferases” (Eur J Med Chem, 2023)", "note": "Activity calls are given as the source filed them. No cut-off for these calls is given here.", "data": [{"molecular_target": "Replicase polyprotein 1ab (Severe acute respiratory syndrome-related coronavirus) (UniProt P0C6X7)", "settings": "dose 5.0 µM, time 30.0 min", "units": {"inhibition": "%"}, "values": [{"smiles": "Cc1ccc(S(=O)(=O)N(C)C[C@H]2O[C@@H](n3cc(C#Cc4cnc5ccccc5c4)c4c(N)ncnc43)[C@H](O)[C@@H]2O)cc1[N+](=O)[O-]", "inhibition": 1.9}, {"smiles": "CCN(C[C@H]1O[C@@H](n2cnc3c(NC)ncnc32)[C@H](O)[C@@H]1O)S(=O)(=O)c1ccc(Br)c([N+](=O)[O-])c1", "inhibition": 29.5}, {"smiles": "CCN(C[C@H]1O[C@@H](n2cnc3c(N)ncnc32)[C@H](O)[C@@H]1O)S(=O)(=O)c1ccc(OC)c(C#N)c1", "inhibition": 4.2}, {"smiles": "CNc1ncnc2c1ncn2[C@@H]1O[C@H](CNS(=O)(=O)c2ccc(OC)c([N+](=O)[O-])c2)[C@@H](O)[C@H]1O", "inhibition": 41.9}, {"smiles": "COc1ccc(S(=O)(=O)N(C)C[C@H]2O[C@@H](n3cc(C#Cc4ccccc4)c4c(N)ncnc43)[C@H](O)[C@@H]2O)cc1C#N", "inhibition": 1}, {"smiles": "CN(C[C@H]1O[C@@H](n2cc(C#Cc3ccccc3)c3c(N)ncnc32)[C@H](O)[C@@H]1O)S(=O)(=O)c1ccc(Br)c([N+](=O)[O-])c1", "inhibition": 3.3}]}, {"molecular_target": "Replicase polyprotein 1ab (Severe acute respiratory syndrome coronavirus 2) (UniProt P0DTD1)", "settings": "dose 5.0 µM, time 30.0 min, values are per cent of control", "units": {"residual activity": "%"}, "values": [{"smiles": "Cc1ccc(S(=O)(=O)N(C)C[C@H]2O[C@@H](n3cc(C#Cc4cnc5ccccc5c4)c4c(N)ncnc43)[C@H](O)[C@@H]2O)cc1[N+](=O)[O-]", "residual activity": 4.2}, {"smiles": "CCN(C[C@H]1O[C@@H](n2cnc3c(NC)ncnc32)[C@H](O)[C@@H]1O)S(=O)(=O)c1ccc(Br)c([N+](=O)[O-])c1", "residual activity": 15.2}, {"smiles": "CNc1ncnc2c1ncn2[C@@H]1O[C@H](CNS(=O)(=O)c2ccc(OC)c([N+](=O)[O-])c2)[C@@H](O)[C@H]1O", "residual activity": 31.5}, {"smiles": "COc1ccc(S(=O)(=O)N(C)C[C@H]2O[C@@H](n3cc(C#Cc4ccccc4)c4c(N)ncnc43)[C@H](O)[C@@H]2O)cc1C#N", "residual activity": 2.4}, {"smiles": "CN(C[C@H]1O[C@@H](n2cc(C#Cc3ccccc3)c3c(N)ncnc32)[C@H](O)[C@@H]1O)S(=O)(=O)c1ccc(Br)c([N+](=O)[O-])c1", "residual activity": 5}]}, {"molecular_target": "Nonstructural protein 5 (Dengue virus) (UniProt V5TFZ2)", "settings": "dengue virus type 3; dose 5.0 µM, time 30.0 min", "values": [{"smiles": "Cc1ccc(S(=O)(=O)N(C)C[C@H]2O[C@@H](n3cc(C#Cc4cnc5ccccc5c4)c4c(N)ncnc43)[C@H](O)[C@@H]2O)cc1[N+](=O)[O-]", "inhibition": "96%"}, {"smiles": "CCN(C[C@H]1O[C@@H](n2cnc3c(NC)ncnc32)[C@H](O)[C@@H]1O)S(=O)(=O)c1ccc(Br)c([N+](=O)[O-])c1", "inhibition": "98%"}, {"smiles": "CCN(C[C@H]1O[C@@H](n2cnc3c(N)ncnc32)[C@H](O)[C@@H]1O)S(=O)(=O)c1ccc(OC)c(C#N)c1", "inhibition": "inactive"}, {"smiles": "CNc1ncnc2c1ncn2[C@@H]1O[C@H](CNS(=O)(=O)c2ccc(OC)c([N+](=O)[O-])c2)[C@@H](O)[C@H]1O", "inhibition": "inactive"}, {"smiles": "CN(C[C@H]1O[C@@H](n2cc(C#Cc3ccccc3)c3c(N)ncnc32)[C@H](O)[C@@H]1O)S(=O)(=O)c1ccc(Br)c([N+](=O)[O-])c1", "inhibition": "96.9%"}]}, {"molecular_target": "T1, mRNA cap guanine-N(7) methyltransferase (Homo sapiens, UniProt O43148)", "T1 sequence (O43148 whole entry)": "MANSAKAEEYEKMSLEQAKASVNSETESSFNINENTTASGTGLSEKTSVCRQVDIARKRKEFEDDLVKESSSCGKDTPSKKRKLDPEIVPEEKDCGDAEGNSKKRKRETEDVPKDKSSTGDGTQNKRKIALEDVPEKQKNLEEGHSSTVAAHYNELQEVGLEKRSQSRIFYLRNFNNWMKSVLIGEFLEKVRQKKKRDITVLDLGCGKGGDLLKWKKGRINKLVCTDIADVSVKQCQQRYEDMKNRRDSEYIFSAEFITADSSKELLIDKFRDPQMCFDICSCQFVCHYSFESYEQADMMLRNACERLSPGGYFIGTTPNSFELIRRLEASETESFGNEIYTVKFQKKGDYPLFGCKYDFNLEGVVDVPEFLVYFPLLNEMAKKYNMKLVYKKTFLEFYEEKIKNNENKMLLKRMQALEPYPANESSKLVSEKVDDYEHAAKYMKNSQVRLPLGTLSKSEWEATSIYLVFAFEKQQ", "settings": "dose 5.0 µM, time 30.0 min", "values": [{"smiles": "Cc1ccc(S(=O)(=O)N(C)C[C@H]2O[C@@H](n3cc(C#Cc4cnc5ccccc5c4)c4c(N)ncnc43)[C@H](O)[C@@H]2O)cc1[N+](=O)[O-]", "inhibition": "86.7%"}, {"smiles": "CCN(C[C@H]1O[C@@H](n2cnc3c(NC)ncnc32)[C@H](O)[C@@H]1O)S(=O)(=O)c1ccc(Br)c([N+](=O)[O-])c1", "inhibition": "inactive"}, {"smiles": "CCN(C[C@H]1O[C@@H](n2cnc3c(N)ncnc32)[C@H](O)[C@@H]1O)S(=O)(=O)c1ccc(OC)c(C#N)c1", "inhibition": "69.5%"}, {"smiles": "CNc1ncnc2c1ncn2[C@@H]1O[C@H](CNS(=O)(=O)c2ccc(OC)c([N+](=O)[O-])c2)[C@@H](O)[C@H]1O", "inhibition": "inactive"}, {"smiles": "COc1ccc(S(=O)(=O)N(C)C[C@H]2O[C@@H](n3cc(C#Cc4ccccc4)c4c(N)ncnc43)[C@H](O)[C@@H]2O)cc1C#N", "inhibition": "inactive"}, {"smiles": "CN(C[C@H]1O[C@@H](n2cc(C#Cc3ccccc3)c3c(N)ncnc32)[C@H](O)[C@@H]1O)S(=O)(=O)c1ccc(Br)c([N+](=O)[O-])c1", "inhibition": "95.9%"}]}, {"molecular_target": "Replicase polyprotein 1ab (Severe acute respiratory syndrome coronavirus 2, UniProt P0DTD1)", "settings": "not given", "units": {"IC50": "nM"}, "values": [{"smiles": "Cc1ccc(S(=O)(=O)N(C)C[C@H]2O[C@@H](n3cc(C#Cc4cnc5ccccc5c4)c4c(N)ncnc43)[C@H](O)[C@@H]2O)cc1[N+](=O)[O-]", "IC50": 2.1}, {"smiles": "CCN(C[C@H]1O[C@@H](n2cnc3c(NC)ncnc32)[C@H](O)[C@@H]1O)S(=O)(=O)c1ccc(Br)c([N+](=O)[O-])c1", "IC50": 383}, {"smiles": "CNc1ncnc2c1ncn2[C@@H]1O[C@H](CNS(=O)(=O)c2ccc(OC)c([N+](=O)[O-])c2)[C@@H](O)[C@H]1O", "IC50": 573}, {"smiles": "COc1ccc(S(=O)(=O)N(C)C[C@H]2O[C@@H](n3cc(C#Cc4ccccc4)c4c(N)ncnc43)[C@H](O)[C@@H]2O)cc1C#N", "IC50": 1.2}, {"smiles": "CN(C[C@H]1O[C@@H](n2cc(C#Cc3ccccc3)c3c(N)ncnc32)[C@H](O)[C@@H]1O)S(=O)(=O)c1ccc(Br)c([N+](=O)[O-])c1", "IC50": 17.3}]}, {"molecular_target": "Replicase polyprotein 1ab (Severe acute respiratory syndrome-related coronavirus, UniProt P0C6X7)", "settings": "not given", "units": {"IC50": "nM"}, "values": [{"smiles": "COc1ccc(S(=O)(=O)N(C)C[C@H]2O[C@@H](n3cc(C#Cc4ccccc4)c4c(N)ncnc43)[C@H](O)[C@@H]2O)cc1C#N", "IC50": 0.8}]}, {"molecular_target": "T1, mRNA cap guanine-N(7) methyltransferase", "settings": "not given", "units": {"IC50": "nM"}, "values": [{"smiles": "COc1ccc(S(=O)(=O)N(C)C[C@H]2O[C@@H](n3cc(C#Cc4ccccc4)c4c(N)ncnc43)[C@H](O)[C@@H]2O)cc1C#N", "IC50": 56500}]}, {"molecular_target": "Nonstructural protein 5 (Dengue virus, UniProt V5TFZ2)", "set-up": "species or system dengue virus type 3", "settings": "not given", "values": [{"smiles": "COc1ccc(S(=O)(=O)N(C)C[C@H]2O[C@@H](n3cc(C#Cc4ccccc4)c4c(N)ncnc43)[C@H](O)[C@@H]2O)cc1C#N", "IC50": "Not Active"}]}, {"test_system": "Severe acute respiratory syndrome coronavirus 2", "settings": "time 30.0 min", "values": [{"smiles": "COc1ccc(S(=O)(=O)N(C)C[C@H]2O[C@@H](n3cc(C#Cc4ccccc4)c4c(N)ncnc43)[C@H](O)[C@@H]2O)cc1C#N", "inhibition": "inactive"}]}, {"test_system": "not listed separately", "test": "Cytotoxicity against Green monkey VeroE6/TMPRSS2 cells assessed as reduction in cell viability upto 10 uM by CellTiter Blue assay", "type": "toxicity, cell-based", "settings": "chlorocebus sabaeus, veroe6/tmprss2, 10 µM", "values": [{"smiles": "Cc1ccc(S(=O)(=O)N(C)C[C@H]2O[C@@H](n3cc(C#Cc4cnc5ccccc5c4)c4c(N)ncnc43)[C@H](O)[C@@H]2O)cc1[N+](=O)[O-]", "Activity": "Non-Toxic"}, {"smiles": "COc1ccc(S(=O)(=O)N(C)C[C@H]2O[C@@H](n3cc(C#Cc4ccccc4)c4c(N)ncnc43)[C@H](O)[C@@H]2O)cc1C#N", "Activity": "Non-Toxic"}, {"smiles": "CN(C[C@H]1O[C@@H](n2cc(C#Cc3ccccc3)c3c(N)ncnc32)[C@H](O)[C@@H]1O)S(=O)(=O)c1ccc(Br)c([N+](=O)[O-])c1", "Activity": "Non-Toxic"}]}, {"test_system": "SARS-CoV-2", "test": "(§1) Antiviral activity against SARS-CoV-2 B.1 infected in Green monkey VeroE6/TMPRSS2 cells assessed as viral replication inhibition at 10 uM incubated for 2 days by qRT-PCR analysis relative to control", "type": "functional", "settings": "Severe acute respiratory syndrome coronavirus 2, time 2.0 day", "values": [{"smiles": "COc1ccc(S(=O)(=O)N(C)C[C@H]2O[C@@H](n3cc(C#Cc4ccccc4)c4c(N)ncnc43)[C@H](O)[C@@H]2O)cc1C#N", "Activity": "inactive"}, {"smiles": "CN(C[C@H]1O[C@@H](n2cc(C#Cc3ccccc3)c3c(N)ncnc32)[C@H](O)[C@@H]1O)S(=O)(=O)c1ccc(Br)c([N+](=O)[O-])c1", "Activity": "inactive"}]}, {"test_system": "SARS-CoV-2", "test": "as §1", "type": "functional, Severe acute respiratory syndrome coronavirus 2", "set-up": "scale not given: the % may be the effect or the level left", "settings": "time 2 day", "units": {"Activity": "%"}, "values": [{"smiles": "Cc1ccc(S(=O)(=O)N(C)C[C@H]2O[C@@H](n3cc(C#Cc4cnc5ccccc5c4)c4c(N)ncnc43)[C@H](O)[C@@H]2O)cc1[N+](=O)[O-]", "Activity": 50}]}]}
